pKd: −log10 of the molar value.
Legend:
[1] = target: GDP-bound KRAS wild-type protein (Homo sapiens, UniProt P01116); assay: Binding to KRAS by surface plasmon resonance (SPR), Single Cycle Kinetics; conditions: SPR Single Cycle Kinetics, GDP-bound KRAS wild-type protein, 1:1 binding model; read-out: KRAS KD
[2] = target: GDP-bound HRAS wild-type protein (Homo sapiens, UniProt P01112); assay: Binding to HRAS by surface plasmon resonance (SPR), Single Cycle Kinetics; conditions: SPR, GDP-bound HRAS wild-type protein vs GDP-bound KRAS wild-type protein
[3] = target: GDP-bound NRAS wild-type protein (Homo sapiens, UniProt P01111); assay: Binding to NRAS by surface plasmon resonance (SPR), Single Cycle Kinetics; conditions: SPR, GDP-bound NRAS wild-type protein vs GDP-bound KRAS wild-type protein
Sequence of GDP-bound NRAS wild-type protein (P01111 whole entry): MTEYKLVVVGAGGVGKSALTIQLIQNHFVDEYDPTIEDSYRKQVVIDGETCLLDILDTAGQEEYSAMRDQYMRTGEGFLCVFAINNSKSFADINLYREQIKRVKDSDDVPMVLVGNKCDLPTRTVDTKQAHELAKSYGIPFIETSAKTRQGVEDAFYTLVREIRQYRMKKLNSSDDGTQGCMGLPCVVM

Sequence of GDP-bound HRAS wild-type protein (P01112 whole entry): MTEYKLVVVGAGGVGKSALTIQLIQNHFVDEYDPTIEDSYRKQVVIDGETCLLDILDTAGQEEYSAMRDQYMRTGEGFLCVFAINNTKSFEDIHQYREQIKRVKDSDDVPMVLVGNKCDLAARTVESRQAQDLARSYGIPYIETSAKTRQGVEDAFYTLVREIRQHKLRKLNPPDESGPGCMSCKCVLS
Sequence of GDP-bound KRAS wild-type protein (P01116 whole entry): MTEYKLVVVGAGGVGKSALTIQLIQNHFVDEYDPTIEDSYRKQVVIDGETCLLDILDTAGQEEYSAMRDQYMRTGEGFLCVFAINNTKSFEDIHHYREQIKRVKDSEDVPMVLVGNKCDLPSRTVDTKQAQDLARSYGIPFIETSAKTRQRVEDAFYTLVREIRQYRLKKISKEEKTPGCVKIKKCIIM

Compound | pKd [1] | HRAS/KRAS (ratio of KD value with respect to HRAS to KD value with respect to KRAS) [2] | NRAS/KRAS (ratio of KD value with respect to NRAS to KD value with respect to KRAS) [3]
CCO[C@@H]1C[C@H]2C(=O)NC3(CCC3)C(=O)N(C)[C@@H](C3CCCC3)C(=O)N(C)[C@H](C(=O)N(C)C)CC(=O)N(C)[C@@H](CC3CCC3)C(=O)N[C@@H]([C@@H](C)CC)C(=O)N(C)CC(=O)N(C)[C@H]3CCCCN(C3=O)[C@@H](Cc3ccc(C(F)(F)F)cc3)C(=O)N(C)CC(=O)N[C@@H](CCc3cc(F)c(C(F)(F)F)c(F)c3)C(=O)N2C1 [PP0698] | 10.82 | C (A compound having a KD ratio of 0.1 or more and less than 3 is denoted as C) | C (A compound having a KD ratio of 0.1 or more and less than 3 is denoted as C)
CCO[C@@H]1C[C@H]2C(=O)NC3(CCC3)C(=O)N(C)[C@@H](C3CCCC3)C(=O)N(C)[C@H](C(=O)N(C)C)CC(=O)N(C)[C@@H](CC(C)(C)C)C(=O)N[C@@H]([C@@H](C)CC)C(=O)N(C)CC(=O)N(C)[C@H]3CCCCN(C3=O)[C@@H](Cc3ccc(C(F)(F)F)cc3)C(=O)N(C)CC(=O)N[C@@H](CCc3cc(F)c(C(F)(F)F)c(F)c3)C(=O)N2C1 [PP0699] | 10.44 | C (A compound having a KD ratio of 0.1 or more and less than 3 is denoted as C) | C (A compound having a KD ratio of 0.1 or more and less than 3 is denoted as C)
CCO[C@@H]1C[C@H]2C(=O)NC3(CCC3)C(=O)N(C)[C@@H](C3CCCC3)C(=O)N(C)[C@H](C(=O)N(C)C)CC(=O)N(C)[C@@H](CC3CCCCC3)C(=O)N[C@@H]([C@@H](C)CC)C(=O)N(C)CC(=O)N(C)[C@H]3CCCCN(C3=O)[C@@H](Cc3ccc(C(F)(F)F)cc3)C(=O)N(C)CC(=O)N[C@@H](CCc3cc(F)c(C(F)(F)F)c(F)c3)C(=O)N2C1 [PP0701] | 10.77 | B (a compound having 3 or more and less than 10 is denoted as B) | C (A compound having a KD ratio of 0.1 or more and less than 3 is denoted as C)
CCO[C@@H]1C[C@H]2C(=O)NC3(CCC3)C(=O)N(C)[C@@H](C3CCCC3)C(=O)N(C)[C@H](C(=O)N(C)C)CC(=O)N(C)[C@@H](Cc3cccnc3)C(=O)N[C@@H]([C@@H](C)CC)C(=O)N(C)CC(=O)N(C)[C@H]3CCCCN(C3=O)[C@@H](Cc3ccc(C(F)(F)F)cc3)C(=O)N(C)CC(=O)N[C@@H](CCc3cc(F)c(C(F)(F)F)c(F)c3)C(=O)N2C1 [PP0703] | 10.89 | B (a compound having 3 or more and less than 10 is denoted as B) | C (A compound having a KD ratio of 0.1 or more and less than 3 is denoted as C)
CCO[C@@H]1C[C@H]2C(=O)NC3(CCC3)C(=O)N(C)[C@@H](C3CCCC3)C(=O)N(C)[C@H](C(=O)N(C)C)CC(=O)N(C)[C@@H](COC)C(=O)N[C@@H]([C@@H](C)CC)C(=O)N(C)CC(=O)N(C)[C@H]3CCCCN(C3=O)[C@@H](Cc3ccc(C(F)(F)F)cc3)C(=O)N(C)CC(=O)N[C@@H](CCc3cc(F)c(C(F)(F)F)c(F)c3)C(=O)N2C1 [PP0704] | 10.96 | C (A compound having a KD ratio of 0.1 or more and less than 3 is denoted as C) | C (A compound having a KD ratio of 0.1 or more and less than 3 is denoted as C)
CCO[C@@H]1C[C@H]2C(=O)NC3(CCC3)C(=O)N(C)[C@@H](C3CCCC3)C(=O)N(C)[C@H](C(=O)N(C)C)CC(=O)N(C)[C@@H](CCOC)C(=O)N[C@@H]([C@@H](C)CC)C(=O)N(C)CC(=O)N(C)[C@H]3CCCCN(C3=O)[C@@H](Cc3ccc(C(F)(F)F)cc3)C(=O)N(C)CC(=O)N[C@@H](CCc3cc(F)c(C(F)(F)F)c(F)c3)C(=O)N2C1 [PP0705] | 10.57 | C (A compound having a KD ratio of 0.1 or more and less than 3 is denoted as C) | C (A compound having a KD ratio of 0.1 or more and less than 3 is denoted as C)
CCO[C@@H]1C[C@H]2C(=O)NC3(CCC3)C(=O)N(C)[C@@H](C3CCCC3)C(=O)N(C)[C@H](C(=O)N(C)C)CC(=O)N(C)C[C@@H](C)C(=O)N[C@@H]([C@@H](C)CC)C(=O)N(C)CC(=O)N(C)[C@H]3CCCCN(C3=O)[C@@H](Cc3ccc(C(F)(F)F)cc3)C(=O)N(C)CC(=O)N[C@@H](CCc3cc(F)c(C(F)(F)F)c(F)c3)C(=O)N2C1 [PP0706] | 8.44 | B (a compound having 3 or more and less than 10 is denoted as B) | B (a compound having 3 or more and less than 10 is denoted as B)
CCO[C@@H]1C[C@H]2C(=O)NC3(CCC3)C(=O)N(C)[C@@H](C3CCCC3)C(=O)N(C)[C@H](C(=O)N3CCOCC3)CC(=O)N(C)[C@@H](CC)C(=O)N[C@@H]([C@@H](C)CC)C(=O)N(C)CC(=O)N(C)[C@H]3CCCCN(C3=O)[C@@H](Cc3ccc(C(F)(F)F)cc3)C(=O)N(C)CC(=O)N[C@@H](CCc3cc(F)c(C(F)(F)F)c(F)c3)C(=O)N2C1 [PP0708] | 10.59 | B (a compound having 3 or more and less than 10 is denoted as B) | B (a compound having 3 or more and less than 10 is denoted as B)
CCC[C@H]1C(=O)N[C@@H]([C@@H](C)CC)C(=O)N(C)CC(=O)N(C)[C@H]2CCCCN(C2=O)[C@@H](Cc2ccc(C(F)(F)F)cc2)C(=O)N(C)CC(=O)N[C@@H](CCc2cc(F)c(C(F)(F)F)c(F)c2)C(=O)N2C[C@H](OCC)C[C@H]2C(=O)NC2(CCC2)C(=O)N(C)[C@@H](C2CCCC2)C(=O)N(C)[C@H](C(=O)N2CCOCC2)CC(=O)N1C [PP0709] | 10.52 | B (a compound having 3 or more and less than 10 is denoted as B) | C (A compound having a KD ratio of 0.1 or more and less than 3 is denoted as C)
C=CC[C@H]1C(=O)N[C@@H]([C@@H](C)CC)C(=O)N(C)CC(=O)N(C)[C@H]2CCCCN(C2=O)[C@@H](Cc2ccc(C(F)(F)F)cc2)C(=O)N(C)CC(=O)N[C@@H](CCc2cc(F)c(C(F)(F)F)c(F)c2)C(=O)N2C[C@H](OCC)C[C@H]2C(=O)NC2(CCC2)C(=O)N(C)[C@@H](C2CCCC2)C(=O)N(C)[C@H](C(=O)N2CCOCC2)CC(=O)N1C [PP0710] | 10.54 | B (a compound having 3 or more and less than 10 is denoted as B) | C (A compound having a KD ratio of 0.1 or more and less than 3 is denoted as C)
C#CC[C@H]1C(=O)N[C@@H]([C@@H](C)CC)C(=O)N(C)CC(=O)N(C)[C@H]2CCCCN(C2=O)[C@@H](Cc2ccc(C(F)(F)F)cc2)C(=O)N(C)CC(=O)N[C@@H](CCc2cc(F)c(C(F)(F)F)c(F)c2)C(=O)N2C[C@H](OCC)C[C@H]2C(=O)NC2(CCC2)C(=O)N(C)[C@@H](C2CCCC2)C(=O)N(C)[C@H](C(=O)N2CCOCC2)CC(=O)N1C [PP0711] | 10.60 | B (a compound having 3 or more and less than 10 is denoted as B) | C (A compound having a KD ratio of 0.1 or more and less than 3 is denoted as C)
CCO[C@@H]1C[C@H]2C(=O)NC3(CCC3)C(=O)N(C)[C@@H](C3CCCC3)C(=O)N(C)[C@H](C(=O)N3CCOCC3)CC(=O)N(C)[C@@H](CC3CC3)C(=O)N[C@@H]([C@@H](C)CC)C(=O)N(C)CC(=O)N(C)[C@H]3CCCCN(C3=O)[C@@H](Cc3ccc(C(F)(F)F)cc3)C(=O)N(C)CC(=O)N[C@@H](CCc3cc(F)c(C(F)(F)F)c(F)c3)C(=O)N2C1 [PP0712] | 10.38 | C (A compound having a KD ratio of 0.1 or more and less than 3 is denoted as C) | C (A compound having a KD ratio of 0.1 or more and less than 3 is denoted as C)
CCO[C@@H]1C[C@H]2C(=O)NC3(CCC3)C(=O)N(C)[C@@H](C3CCCC3)C(=O)N(C)[C@H](C(=O)N3CCOCC3)CC(=O)N(C)[C@@H](CC3CCC3)C(=O)N[C@@H]([C@@H](C)CC)C(=O)N(C)CC(=O)N(C)[C@H]3CCCCN(C3=O)[C@@H](Cc3ccc(C(F)(F)F)cc3)C(=O)N(C)CC(=O)N[C@@H](CCc3cc(F)c(C(F)(F)F)c(F)c3)C(=O)N2C1 [PP0713] | 10.48 | B (a compound having 3 or more and less than 10 is denoted as B) | C (A compound having a KD ratio of 0.1 or more and less than 3 is denoted as C)
CCO[C@@H]1C[C@H]2C(=O)NC3(CCC3)C(=O)N(C)[C@@H](C3CCCC3)C(=O)N(C)[C@H](C(=O)N3CCOCC3)CC(=O)N(C)[C@@H](CC(C)(C)C)C(=O)N[C@@H]([C@@H](C)CC)C(=O)N(C)CC(=O)N(C)[C@H]3CCCCN(C3=O)[C@@H](Cc3ccc(C(F)(F)F)cc3)C(=O)N(C)CC(=O)N[C@@H](CCc3cc(F)c(C(F)(F)F)c(F)c3)C(=O)N2C1 [PP0714] | 10.33 | B (a compound having 3 or more and less than 10 is denoted as B) | C (A compound having a KD ratio of 0.1 or more and less than 3 is denoted as C)
CCO[C@@H]1C[C@H]2C(=O)NC3(CCC3)C(=O)N(C)[C@@H](C3CCCC3)C(=O)N(C)[C@H](C(=O)N3CCOCC3)CC(=O)N(C)[C@@H](CC3CCCC3)C(=O)N[C@@H]([C@@H](C)CC)C(=O)N(C)CC(=O)N(C)[C@H]3CCCCN(C3=O)[C@@H](Cc3ccc(C(F)(F)F)cc3)C(=O)N(C)CC(=O)N[C@@H](CCc3cc(F)c(C(F)(F)F)c(F)c3)C(=O)N2C1 [PP0715] | 10.46 | B (a compound having 3 or more and less than 10 is denoted as B) | C (A compound having a KD ratio of 0.1 or more and less than 3 is denoted as C)

Source: patent publication US20240158446A1, “CYCLIC COMPOUND HAVING SELECTIVE INHIBITORY ACTION ON KRAS OVER HRAS AND NRAS” (CHUGAI SEIYAKU KABUSHIKI KAISHA, priority 2021, published 2024)
